Data from paper PMC11368658 (Molecular oral microbiology, 2024).

What was measured:
TDE1909 (CdaA) = TDE1909 (CdaA) (Treponema denticola, UniProt Q73LF5); format: biochemical; conditions: 150 µM ATP, 5 µM enzyme, 10 mM MnCl2, pH 7.5, 37 °C, 1-4 hr
TDE0027 (DhhA) = TDE0027 (DhhA) (Treponema denticola, UniProt Q73RQ8); test: absorbance at […] nm; format: biochemical; conditions: MnCl2 buffer, 30 min
TDE0087 (TrkA) = molecular target: T1, TDE0087 (TrkA) (Treponema denticola, UniProt Q73RK1); test: ELISA-type plate binding, immobilised protein, streptavidin-HRP; conditions: labelled compound (biotinylated c-di-AMP, 125 nM); 50 mM Tris-HCl pH 8.0, 750 mM KCl, 2.5 mM EDTA, 2 hr
T1 sequence (Q73RK1 1-466): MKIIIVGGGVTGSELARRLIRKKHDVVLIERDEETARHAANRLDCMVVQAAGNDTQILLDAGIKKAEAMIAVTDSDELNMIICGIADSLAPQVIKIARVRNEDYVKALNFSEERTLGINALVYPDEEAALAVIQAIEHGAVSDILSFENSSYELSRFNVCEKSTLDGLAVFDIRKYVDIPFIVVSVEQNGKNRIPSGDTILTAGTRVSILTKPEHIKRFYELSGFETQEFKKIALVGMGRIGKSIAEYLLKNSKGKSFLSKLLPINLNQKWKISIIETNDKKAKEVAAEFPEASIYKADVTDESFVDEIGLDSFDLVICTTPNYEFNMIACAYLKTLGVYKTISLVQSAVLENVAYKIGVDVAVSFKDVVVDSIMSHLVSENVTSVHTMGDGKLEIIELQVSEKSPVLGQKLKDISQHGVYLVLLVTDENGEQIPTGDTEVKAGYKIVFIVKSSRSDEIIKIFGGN

Row | SMILES | RP-HPLC of reaction products (TDE1909 (CdaA)) | absorbance at 405 nm (TDE0027 (DhhA)) | ELISA-type plate binding, immobilised protein, streptavidin-HRP (TDE0087 (TrkA))
1 | Nc1ncnc2c1ncn2[C@@H]1O[C@H](COP(=O)(O)OP(=O)(O)OP(=O)(O)O)[C@@H](O)[C@H]1O [ATP] | we observed that CdaA converted ATP to c-di-AMP while CdaR did not |  | 
2 | O=[N+]([O-])c1ccc(OP(=O)(O)Oc2ccc([N+](=O)[O-])cc2)cc1 [bis-pNPP] |  | TDE0027 hydrolyzed bis-pNPP but not pNPP | 
3 | Nc1ncnc2c1ncn2[C@@H]1O[C@@H]2COP(=O)(O)O[C@H]3[C@@H](O)[C@H](n4cnc5c(N)ncnc54)O[C@@H]3COP(=O)(O)O[C@H]2[C@H]1O [c-di-AMP] | we observed that CdaA converted ATP to c-di-AMP while CdaR did not |  | TDE0087 bound c-di-AMP similarly to the CabP control
